Key:
Assay in all cases: TMT LC-MSMS of 11-labelled proteins
Assay type in all cases: cell-based
[1] = target: ATP synthase subunit alpha, mitochondrial (ATP5A1) (Homo sapiens, UniProt P25705)
peroxiredoxin-1 (PRDX1) = target: T1, peroxiredoxin-1 (PRDX1) (Homo sapiens, UniProt Q06830)
T1 sequence (Q06830 1-199): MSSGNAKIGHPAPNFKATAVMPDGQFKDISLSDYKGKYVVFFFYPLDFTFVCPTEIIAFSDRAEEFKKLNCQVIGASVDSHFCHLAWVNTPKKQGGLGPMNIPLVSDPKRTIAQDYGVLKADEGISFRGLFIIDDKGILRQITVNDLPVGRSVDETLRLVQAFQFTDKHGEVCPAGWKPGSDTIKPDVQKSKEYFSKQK

Endoplasmin (HSP90B1) = Endoplasmin (HSP90B1) (Homo sapiens, UniProt P14625)
[2] = target: T2, ADP/ATP translocase 3 (SLC25A6) (Homo sapiens, UniProt P12236)
T2 sequence (P12236 1-298): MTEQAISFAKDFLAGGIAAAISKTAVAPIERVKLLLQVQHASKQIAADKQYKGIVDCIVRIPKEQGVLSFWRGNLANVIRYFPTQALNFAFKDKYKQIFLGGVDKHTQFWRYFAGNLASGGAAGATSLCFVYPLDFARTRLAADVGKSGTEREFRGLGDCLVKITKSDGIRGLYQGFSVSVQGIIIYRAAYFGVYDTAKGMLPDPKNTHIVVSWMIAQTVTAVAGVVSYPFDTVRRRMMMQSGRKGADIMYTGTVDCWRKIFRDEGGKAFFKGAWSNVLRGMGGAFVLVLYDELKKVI

[3] = sheet Exp1, SKBR3 cells, 11 0.5 µM 3 h vs DMSO
[4] = sheet Exp1, SKBR3 cells, 11 0.5 µM 3 h vs with PU-H71 10 µM
[5] = sheet Merged, SKBR3 cells, 11 0.5 µM 3 h vs DMSO
[6] = sheet Merged, SKBR3 cells, 11 0.5 µM 3 h vs with PU-H71 10 µM

Endoplasmin (HSP90B1), sequence (P14625 22-803): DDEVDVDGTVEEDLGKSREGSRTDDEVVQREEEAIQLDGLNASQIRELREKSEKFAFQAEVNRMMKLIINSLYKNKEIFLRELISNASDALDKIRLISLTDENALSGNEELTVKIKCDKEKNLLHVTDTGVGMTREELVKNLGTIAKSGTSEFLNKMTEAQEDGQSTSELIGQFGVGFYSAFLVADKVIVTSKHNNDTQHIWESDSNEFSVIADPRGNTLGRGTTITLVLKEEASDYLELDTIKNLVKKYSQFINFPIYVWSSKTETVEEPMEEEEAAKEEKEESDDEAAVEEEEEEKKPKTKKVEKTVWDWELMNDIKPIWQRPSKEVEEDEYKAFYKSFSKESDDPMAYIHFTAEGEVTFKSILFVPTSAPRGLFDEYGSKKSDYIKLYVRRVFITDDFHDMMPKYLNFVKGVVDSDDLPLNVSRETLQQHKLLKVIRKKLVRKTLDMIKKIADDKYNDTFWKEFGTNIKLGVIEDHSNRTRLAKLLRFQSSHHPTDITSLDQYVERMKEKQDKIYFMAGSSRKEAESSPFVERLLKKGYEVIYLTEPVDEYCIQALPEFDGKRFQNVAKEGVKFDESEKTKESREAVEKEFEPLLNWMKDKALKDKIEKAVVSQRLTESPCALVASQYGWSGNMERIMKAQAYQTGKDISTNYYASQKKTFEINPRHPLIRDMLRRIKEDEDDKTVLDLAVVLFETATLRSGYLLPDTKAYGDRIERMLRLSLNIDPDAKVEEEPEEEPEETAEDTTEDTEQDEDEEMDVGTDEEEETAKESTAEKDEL

**Q.** For CC(=O)Oc1ccc2c(c1)Oc1cc(OC(C)=O)ccc1C21OC(=O)c2cc(C(=O)NCCOCCOCCNC(=O)CCCC(=O)N(CC#N)S(=O)(=O)c3ccc(C(=O)NCCCn4c(Sc5cc6c(cc5I)OCO6)nc5c(N)ncnc54)cc3)ccc21 [compound 11], which “Abundance Ratio: (11) / (11 with PU-H71)” value ([1]; Exp3, ATP5A1) is on record?
**A.** 0.84

**Q.** What about the “Abundance Ratio: (11) / (DMSO)” value ([1]; Exp3, ATP5A1) of the same compound?
**A.** 3.573

**Q.** What about the “Abundances (Grouped): 11” value ([1]; Exp3, ATP5A1) of the same compound?
**A.** 381.2

**Q.** What about the “Abundances (Grouped): 11 with PU-H71” value ([1]; Exp3, ATP5A1) of the same compound?
**A.** 453.7

**Q.** What about the “Abundance Ratio: (11) / (DMSO)” value [1, 3] of the same compound?
**A.** 3.323

**Q.** And the “Abundance Ratio: (11) / (11 with PU-H71)” value [1, 4]?
**A.** 0.923

**Q.** What about the “Abundance Ratio: (11) / (11 with PU-H71)” value ([1]; sheet Exp2, ATP5A1) of the same compound?
**A.** 0.771

**Q.** What about the “Abundance Ratio: (11) / (DMSO)” value ([1]; sheet Exp2, ATP5A1) of the same compound?
**A.** 3.865

**Q.** What about the “Abundances (Grouped): 11” value ([1]; sheet Exp2, ATP5A1) of the same compound?
**A.** 390.8

**Q.** What about the “Abundances (Grouped): 11 with PU-H71” value ([1]; sheet Exp2, ATP5A1) of the same compound?
**A.** 506.9

**Q.** What about the “Abundance Ratio: (11) / (DMSO)” value [1, 5] of the same compound?
**A.** 3.663

**Q.** And the “Abundance Ratio: (11) / (11 with PU-H71)” value [1, 6]?
**A.** 0.771

**Q.** And the “Abundance Ratio: (11) / (11 with PU-H71)” value (peroxiredoxin-1 (PRDX1); Exp3, PRDX1)?
**A.** 0.822

**Q.** What about the “Abundance Ratio: (11) / (DMSO)” value (peroxiredoxin-1 (PRDX1); Exp3, PRDX1) of the same compound?
**A.** 2.683

**Q.** What about the “Abundances (Grouped): 11” value (peroxiredoxin-1 (PRDX1); Exp3, PRDX1) of the same compound?
**A.** 295.4

**Q.** What about the “Abundances (Grouped): 11 with PU-H71” value (peroxiredoxin-1 (PRDX1); Exp3, PRDX1) of the same compound?
**A.** 359.3

**Q.** What about the “Abundance Ratio: (11) / (DMSO)” value (peroxiredoxin-1 (PRDX1); [3]) of the same compound?
**A.** 2.358

**Q.** What about the “Abundance Ratio: (11) / (11 with PU-H71)” value (peroxiredoxin-1 (PRDX1); [4]) of the same compound?
**A.** 0.804

**Q.** And the “Abundance Ratio: (11) / (11 with PU-H71)” value (peroxiredoxin-1 (PRDX1); sheet Exp2, PRDX1)?
**A.** 0.861

**Q.** And the “Abundance Ratio: (11) / (DMSO)” value (peroxiredoxin-1 (PRDX1); sheet Exp2, PRDX1)?
**A.** 2.62

**Q.** And the “Abundances (Grouped): 11” value (peroxiredoxin-1 (PRDX1); sheet Exp2, PRDX1)?
**A.** 93.8

**Q.** And the “Abundances (Grouped): 11 with PU-H71” value (peroxiredoxin-1 (PRDX1); sheet Exp2, PRDX1)?
**A.** 109

**Q.** What about the “Abundance Ratio: (11) / (DMSO)” value (peroxiredoxin-1 (PRDX1); [5]) of the same compound?
**A.** 2.219

**Q.** And the “Abundance Ratio: (11) / (11 with PU-H71)” value (peroxiredoxin-1 (PRDX1); [6])?
**A.** 0.847

**Q.** What about the “Abundance Ratio: (11) / (11 with PU-H71)” value (Endoplasmin (HSP90B1); Exp3, HSP90B1) of the same compound?
**A.** 1.101

**Q.** And the “Abundance Ratio: (11) / (DMSO)” value (Endoplasmin (HSP90B1); Exp3, HSP90B1)?
**A.** 2.844

**Q.** What about the “Abundances (Grouped): 11” value (Endoplasmin (HSP90B1); Exp3, HSP90B1) of the same compound?
**A.** 158.7

**Q.** What about the “Abundances (Grouped): 11 with PU-H71” value (Endoplasmin (HSP90B1); Exp3, HSP90B1) of the same compound?
**A.** 144.1

**Q.** What about the “Abundance Ratio: (11) / (DMSO)” value (Endoplasmin (HSP90B1); [3]) of the same compound?
**A.** 6.226

**Q.** What about the “Abundance Ratio: (11) / (11 with PU-H71)” value (Endoplasmin (HSP90B1); [4]) of the same compound?
**A.** 1.266

**Q.** And the “Abundance Ratio: (11) / (11 with PU-H71)” value (Endoplasmin (HSP90B1); sheet Exp2, HSP90B1)?
**A.** 0.932

**Q.** What about the “Abundance Ratio: (11) / (DMSO)” value (Endoplasmin (HSP90B1); sheet Exp2, HSP90B1) of the same compound?
**A.** 2.232

**Q.** What about the “Abundances (Grouped): 11” value (Endoplasmin (HSP90B1); sheet Exp2, HSP90B1) of the same compound?
**A.** 31.7

**Q.** What about the “Abundances (Grouped): 11 with PU-H71” value (Endoplasmin (HSP90B1); sheet Exp2, HSP90B1) of the same compound?
**A.** 34

**Q.** And the “Abundance Ratio: (11) / (DMSO)” value (Endoplasmin (HSP90B1); [5])?
**A.** 6.226

**Q.** What about the “Abundance Ratio: (11) / (11 with PU-H71)” value (Endoplasmin (HSP90B1); [6]) of the same compound?
**A.** 1.266

**Q.** What about the “Abundance Ratio: (11) / (11 with PU-H71)” value ([2]; Exp3, SLC25A6) of the same compound?
**A.** 0.576

**Q.** And the “Abundance Ratio: (11) / (DMSO)” value ([2]; Exp3, SLC25A6)?
**A.** 5.78

**Q.** And the “Abundances (Grouped): 11” value ([2]; Exp3, SLC25A6)?
**A.** 626.5

**Q.** What about the “Abundances (Grouped): 11 with PU-H71” value ([2]; Exp3, SLC25A6) of the same compound?
**A.** 1087.4

**Q.** And the “Abundance Ratio: (11) / (DMSO)” value [2, 3]?
**A.** 5.287

**Q.** What about the “Abundance Ratio: (11) / (11 with PU-H71)” value [2, 4] of the same compound?
**A.** 0.613

**Q.** What about the “Abundance Ratio: (11) / (11 with PU-H71)” value ([2]; sheet Exp2, SLC25A6) of the same compound?
**A.** 0.601

**Q.** What about the “Abundance Ratio: (11) / (DMSO)” value ([2]; sheet Exp2, SLC25A6) of the same compound?
**A.** 6.595

**Q.** What about the “Abundances (Grouped): 11” value ([2]; sheet Exp2, SLC25A6) of the same compound?
**A.** 579

**Q.** What about the “Abundances (Grouped): 11 with PU-H71” value ([2]; sheet Exp2, SLC25A6) of the same compound?
**A.** 963.9

**Q.** What about the “Abundance Ratio: (11) / (DMSO)” value [2, 5] of the same compound?
**A.** 5.939

**Q.** What about the “Abundance Ratio: (11) / (11 with PU-H71)” value [2, 6] of the same compound?
**A.** 0.586

Source: paper PMC5951806, “Rapid labelling and covalent inhibition of intracellular native proteins using ligand-directed N-acyl-N-alkyl sulfonamide” (Nature Communications, 2018)
